Measurements as given in patent US12403125B2, “Use of Ovatodiolide against SARS-CoV-2” (Peking University Shenzhen Graduate School, priority 2020, dated 2025).

Tests used:
[1] = mice; for number of micronuclei in the reticulocytes vs negative control / number of reticulocytes in peripheral blood vs negative control: 48 and 72 hours after administration
Method: In this experiment, the Formula I compound—Ovatodiolide on the peripheral blood micronucleus was tested in mice (ICR strain). This experiment mainly tested the effect of the Formula I compound—Ovatodiolide on the ratio of the occurrence of micronucleus in the peripheral blood of the mice (in vivo), so as to evaluate the level of damages caused by directly or indirectly triggered gene mutations of erythrocyte chromosomes or mitosis. ICR mice were used as the experimental subjects of this experiment, and the experiment was divided into 5 groups, the negative control group, the positive control group (Cyclophosphamide, 60 mg/kg bw ip), the Formula I compound—Ovatodiolide low dose (0.25 g/kg bw) group, the medium Dosage (0.5 g/kg bw) group and the high dose (1 g/kg bw) group, 5 mice (male) in each group, and Ovatodiolide was fed once by a gastric tube, 48 and 72 hours after the tested substances were administered, the reticulocytes and the occurrence (%) of micronucleus in the reticulocytes in the peripheral blood of the mice were evaluated.

SARS-CoV-2 pseudovirus = assay: microbe, parasite or virus in culture; format: cell-based
[2] = Single-dose oral acute toxicity test in rats; format: in vivo, rats (Sprague-Dawley, S D strain)
Method: This example was a single-dose oral acute toxicity safety test of the Formula I compound—Ovatodiolide in rats, and a reference for food safety assessment was provided. […] In this experiment, single-dose oral acute toxicity tests of the Formula I compound—ovatodiolide were conducted in rats (Sprague-Dawley, S D strain). The Formula I compound—Ovatodiolide was in the form of yellowish crystals, the test purity was 99.95%, 10% of DMSO was used to prepare a solution concentration of 0.1 g/mL during the experiment, the feeding volume of each rat was 10 mL/kg body weight, the rats were fed orally based on their body weights on that day, the final dose was 1 g/kg-body weight in total, and the rats were continuously observed for 14 days after administration. […] No effects on the serum liver and kidney enzyme values of the male and female rats in the treatment group, including aspartate aminotransferase (AST), alanine aminotransferase (ALT), blood urea nitrogen (BUN), and creatinine, etc.

[3] = 28-day feeding (repeated dose oral) toxicity test in rats; format: in vivo, rats (Sprague-Dawley, S D strain)
Method: This experiment investigated whether the Formula I compound—Ovatodiolide might cause potential side effect toxicity to human bodies for clinical safety assessment, and 28-day repeated-dose oral toxicity tests of the Formula I compound—Ovatodiolide were conducted to observe clinical side effects. The Formula I compound—Ovatodiolide was a yellowish crystal, the test purity was regarded as 99.95%, and the samples were prepared with 5% of DMSO during the tests. Rats (Sprague-Dawley, S D strain) were divided into 4 groups, the control group (5% of DMSO), the low-dose group (10 mg/kg-body weight), the medium-dose group (25 mg/kg body weight) and the high-dose group (50 mg/kg-body weight), 20 rats in each group, half males and half females, each rat was fed with a volume of 10 mL/kg-body weight, and the rats were orally fed according to their body weight on the day for 28 consecutive days. […] In view of the above test results, after the rats of the low-dose group (10 mg/kg-body weight), the medium-dose group (25 mg/kg-body weight) and the high-dose group (50 mg/kg-body weight) were orally fed respectively with the Formula I compound—Ovatodiolide for 28 days continuously, no toxic reactions was caused to various organs of the male and female rats, and the “No observed adverse effect level” (NOAEL) for the 28-day feeding toxicity test in rats was 50 mg/kg-body weight, the equivalent human dose was about 8 mg/kg-body weight.

CHO-K1 cells = assay: In vitro mammalian chromosome aberration test, with cytotoxicity test; format: cell-based; conditions: for survival rate of the CHO-K1 cells: 24 hours
Method: In this experiment, the chromosomal aberration test with mammalian cell in culture of the Formula I compound—Ovatodiolide was carried out. The Formula I compound—Ovatodiolide was yellowish crystals, and prepared with Dimethyl sulfoxide (DMSO) during the test. The cytotoxicity test was divided into two parts, in one part, CHO-K1 cells was reacted directly with the Formula I compound—Ovatodiolide, and in the other part, rat liver activating enzyme extract (S9) was used to simulate human metabolism, CHO-K1 cells, the rat liver activating enzyme extract (S9) and the Formula I compound—Ovatodiolide were mixed and then reacted.

influenza virus = assay: Test experiments on influenza virus in contrast to Tamiflu
HIV virus = conditions: Fitoterapia, 2000, 71(5): 574-576; cited from earlier work
[4] = male and female rats, 1 g/kg-body weight oral

O=P1(N(CCCl)CCCl)NCCCO1 (stereo not drawn) [Cyclophosphamide, reference compound]
number of micronuclei in the reticulocytes vs negative control [1]: increased significantly
number of reticulocytes in peripheral blood vs negative control [1]: significantly decreased

C=C1C(=O)O[C@@H]2/C=C(\C)C[C@H]3C=C(CC/C=C(\C)CC[C@@H]12)C(=O)O3 [Ovatodiolide]
inhibitory effect on coronavirus infections (SARS-CoV-2 pseudovirus): significant inhibitory effect on coronavirus infections at the micromolar level
IC50 (SARS-CoV-2 pseudovirus; Severe acute respiratory syndrome-related coronavirus, Huh-7, 64 h, read-out: IC50 for inhibiting SARS-CoV-2 infections): 3.73 µM
equivalent human dose of the single acute dose ([2]; from 1 g/Kg-body weight in rats): about 50 mg/kg-body weight
blood values (WBC, RBC, Hct, MCV, MCH, MCHC, platelets, leukocyte classification) [2, 4]: no significant abnormal changes
serum liver and kidney enzyme values (AST, ALT, BUN, creatinine) [2, 4]: No effects
weekly body weight and body weight gain vs control group [2, 4]: no significant difference
histopathological examination of important organs ([2]; rats, 1 g/kg-body weight oral): no histopathological changes in relation to the test substances
acute poisoning or death ([2]; rats, single oral dose 1 g/Kg-body weight, observed 14 days): no acute poisoning or death
equivalent human dose of the NOAEL ([3]; from rat NOAEL, 28-day feeding): about 8 mg/kg-body weight
histopathological examination of organs ([3]; high-dose group (50 mg/kg-body weight), 28 days): no pathological changes related to organ toxicity reaction
body weight changes, feed consumptions, urine, blood values, serum enzyme values and organ weights vs control ([3]; male and female rats, each treatment group, 28 days): within the normal range
symptoms of being poisoned or death ([3]; rats, oral 10, 25 and 50 mg/kg-body weight, 28 days): no symptoms of being poisoned or death
No observed adverse effect level (NOAEL) ([3]; rats, oral, 28 consecutive days): 50 mg/kg-body weight
survival rate of the CHO-K1 cells (CHO-K1 cells; 17.5 μM, without S9 (−S9)): about 65.6%
survival rate of the CHO-K1 cells (CHO-K1 cells; 75 μM, with S9 (+S9)): about 60.3%
frequency of chromosomal aberration in the CHO-K1 cells vs negative control (CHO-K1 cells; 12.5, 15 and 17.5 μM (−S9) and 55, 65 and 75 μM (+S9)): did not increase significantly
number of micronuclei in the reticulocytes vs negative control [1]: no significant difference
number of reticulocytes in peripheral blood vs negative control [1]: no significant difference
micronucleus test result ([1]; each dose group): negative
toxicity symptoms and body weight ([1]; single gastric tube dose 0.25, 0.5, 1 g/kg bw, 48 and 72 hours): no toxicity symptoms and no differences in the body weight
effect on inhibiting influenza virus (influenza virus): excellent effect on inhibiting influenza virus
inhibition of HIV virus (HIV virus): can inhibit HIV virus
